Test results as given in patent US9546156B2, “N-bicyclic aryl,N'-pyrazolyl urea, thiourea, guanidine cyanoguanidine compounds as TrkA kinase inhibitors” (Array BioPharma Inc., priority 2012, dated 2017).

Experiments:
Test in all cases: Off-target kinase profiling (KinaseProfiler)
Assay type in all cases: biochemical
Conditions in all cases: 10 μM, ATP near Km
[1] = biological target: T1, TAK1 (Homo sapiens, UniProt O43318)
T1 construct: purchased Millipore, Inc. (KinaseProfiler service)
Description: (§1) A representative compound (Example 16) of the invention was tested for off-target kinase activity at a concentration of 10 μM by Millipore, Inc. in their KinaseProfiler™ service against all the kinases available in their full kinase panel. The compound was run in duplicate at a concentration of ATP near the Km for each individual kinase according to Millipore's specifications. The results are shown in Table B. Data are reported as percent of control (POC) and are the average of the two replicates.

[2] = biological target: T2, MKK4_m (Mus musculus, UniProt P47809)
T2 construct: purchased Millipore, Inc. (KinaseProfiler service)
Description: as §1

[3] = biological target: T3, CAMK2g (Homo sapiens, UniProt Q13555)
T3 construct: purchased Millipore, Inc. (KinaseProfiler service)
Description: as §1

[4] = biological target: T4, IKKalpha (Homo sapiens, UniProt O15111)
T4 construct: purchased Millipore, Inc. (KinaseProfiler service)
Description: as §1

[5] = biological target: T5, NEK11 (Homo sapiens, UniProt Q8NG66)
T5 construct: purchased Millipore, Inc. (KinaseProfiler service)
Description: as §1

[6] = biological target: T6, CK2alpha2 (Homo sapiens, UniProt P19784)
T6 construct: purchased Millipore, Inc. (KinaseProfiler service)
Description: as §1

[7] = biological target: T7, MRCKalpha (Homo sapiens, UniProt Q5VT25)
T7 construct: purchased Millipore, Inc. (KinaseProfiler service)
Description: as §1

[8] = biological target: T8, TSSK1 (Homo sapiens, UniProt Q9BXA7)
T8 construct: purchased Millipore, Inc. (KinaseProfiler service)
Description: as §1

[9] = biological target: T9, ULK2 (Homo sapiens, UniProt Q8IYT8)
T9 construct: purchased Millipore, Inc. (KinaseProfiler service)
Description: as §1

[10] = biological target: T10, DAPK2 (Homo sapiens, UniProt Q9UIK4)
T10 construct: purchased Millipore, Inc. (KinaseProfiler service)
Description: as §1

[11] = biological target: T11, PRKG1beta (Homo sapiens, UniProt Q13976)
T11 construct: purchased Millipore, Inc. (KinaseProfiler service)
Description: as §1

[12] = biological target: T12, GSK3beta (Homo sapiens, UniProt P49841)
T12 construct: purchased Millipore, Inc. (KinaseProfiler service)
Description: as §1

[13] = biological target: T13, EphA5 (Homo sapiens, UniProt P54756)
T13 construct: purchased Millipore, Inc. (KinaseProfiler service)
Description: as §1

[14] = biological target: T14, FAK2 (Homo sapiens, UniProt Q14289)
T14 construct: purchased Millipore, Inc. (KinaseProfiler service)
Description: as §1

[15] = biological target: T15, CK1gamma2 (Homo sapiens, UniProt P78368)
T15 construct: purchased Millipore, Inc. (KinaseProfiler service)
Description: as §1

[16] = biological target: T16, NEK2 (Homo sapiens, UniProt P51955)
T16 construct: purchased Millipore, Inc. (KinaseProfiler service)
Description: as §1

[17] = test system: CK1_y
Description: as §1

[18] = biological target: T17, BTK (Homo sapiens, UniProt Q06187)
T17 construct: purchased Millipore, Inc. (KinaseProfiler service)
Description: as §1

[19] = biological target: T18, EphA8 (Homo sapiens, UniProt P29322)
T18 construct: purchased Millipore, Inc. (KinaseProfiler service)
Description: as §1

[20] = biological target: T19, CAMK2d (Homo sapiens, UniProt Q13557)
T19 construct: purchased Millipore, Inc. (KinaseProfiler service)
Description: as §1

[21] = biological target: T20, IGF-1R Activated (Homo sapiens, UniProt P08069)
T20 construct: purchased Millipore, Inc. (KinaseProfiler service)
Description: as §1

[22] = biological target: T21, Abl2 (Homo sapiens, UniProt P42684)
T21 construct: purchased Millipore, Inc. (KinaseProfiler service)
Description: as §1

[23] = biological target: T22, CHK1 (Homo sapiens, UniProt O14757)
T22 construct: purchased Millipore, Inc. (KinaseProfiler service)
Description: as §1

[24] = biological target: T23, PKCtheta (Homo sapiens, UniProt Q04759)
T23 construct: purchased Millipore, Inc. (KinaseProfiler service)
Description: as §1

[25] = biological target: T24, Axl (Homo sapiens, UniProt P30530)
T24 construct: purchased Millipore, Inc. (KinaseProfiler service)
Description: as §1

[26] = biological target: T25, Rsk4 (Homo sapiens, UniProt Q9UK32)
T25 construct: purchased Millipore, Inc. (KinaseProfiler service)
Description: as §1

[27] = biological target: T26, FGFR1 (Homo sapiens, UniProt P11362)
T26 construct: purchased Millipore, Inc. (KinaseProfiler service)
Description: as §1

[28] = biological target: T27, DCAMKL2 (Homo sapiens, UniProt Q8N568)
T27 construct: purchased Millipore, Inc. (KinaseProfiler service)
Description: as §1

[29] = biological target: T28, Yes (Homo sapiens, UniProt P07947)
T28 construct: purchased Millipore, Inc. (KinaseProfiler service)
Description: as §1

[30] = biological target: T29, MAP3K5 (Homo sapiens, UniProt Q99683)
T29 construct: purchased Millipore, Inc. (KinaseProfiler service)
Description: as §1

[31] = biological target: T30, IR (Homo sapiens, UniProt P06213)
T30 construct: purchased Millipore, Inc. (KinaseProfiler service)
Description: as §1

[32] = biological target: T31, CDK1/cyclinB (Homo sapiens, UniProt P06493)
T31 construct: purchased Millipore, Inc. (KinaseProfiler service)
Description: as §1

[33] = biological target: T32, CK2 (Homo sapiens, UniProt P68400)
T32 construct: purchased Millipore, Inc. (KinaseProfiler service)
Description: as §1

[34] = biological target: T33, AMPK(A1/B1/G1) (Homo sapiens, UniProt Q13131)
T33 construct: purchased Millipore, Inc. (KinaseProfiler service)
Description: as §1

[35] = biological target: T34, PRKG1alpha (Homo sapiens, UniProt Q13976)
T34 construct: purchased Millipore, Inc. (KinaseProfiler service)
Description: as §1

[36] = biological target: T35, BrSK2 (Homo sapiens, UniProt Q8IWQ3)
T35 construct: purchased Millipore, Inc. (KinaseProfiler service)
Description: as §1

[37] = biological target: T36, TAO1 (Homo sapiens, UniProt Q7L7X3)
T36 construct: purchased Millipore, Inc. (KinaseProfiler service)
Description: as §1

[38] = biological target: T37, BLK_m (Mus musculus, UniProt P16277)
T37 construct: purchased Millipore, Inc. (KinaseProfiler service)
Description: as §1

[39] = biological target: T38, GRK6 (Homo sapiens, UniProt P43250)
T38 construct: purchased Millipore, Inc. (KinaseProfiler service)
Description: as §1

[40] = biological target: T39, p38beta (Homo sapiens, UniProt Q15759)
T39 construct: purchased Millipore, Inc. (KinaseProfiler service)
Description: as §1

[41] = biological target: T40, FAK (Homo sapiens, UniProt Q05397)
T40 construct: purchased Millipore, Inc. (KinaseProfiler service)
Description: as §1

T10 sequence (Q9UIK4 whole entry): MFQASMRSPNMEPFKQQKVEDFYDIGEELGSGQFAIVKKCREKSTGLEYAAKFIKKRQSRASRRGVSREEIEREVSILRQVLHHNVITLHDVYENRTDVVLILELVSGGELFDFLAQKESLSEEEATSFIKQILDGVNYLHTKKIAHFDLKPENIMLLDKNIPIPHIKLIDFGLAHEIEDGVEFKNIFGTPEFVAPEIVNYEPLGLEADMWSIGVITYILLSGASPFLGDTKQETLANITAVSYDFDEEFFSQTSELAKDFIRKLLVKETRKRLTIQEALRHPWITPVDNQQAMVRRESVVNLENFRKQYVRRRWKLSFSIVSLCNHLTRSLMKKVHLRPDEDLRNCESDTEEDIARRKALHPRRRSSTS
T1 sequence (O43318 1-303 limits assumed): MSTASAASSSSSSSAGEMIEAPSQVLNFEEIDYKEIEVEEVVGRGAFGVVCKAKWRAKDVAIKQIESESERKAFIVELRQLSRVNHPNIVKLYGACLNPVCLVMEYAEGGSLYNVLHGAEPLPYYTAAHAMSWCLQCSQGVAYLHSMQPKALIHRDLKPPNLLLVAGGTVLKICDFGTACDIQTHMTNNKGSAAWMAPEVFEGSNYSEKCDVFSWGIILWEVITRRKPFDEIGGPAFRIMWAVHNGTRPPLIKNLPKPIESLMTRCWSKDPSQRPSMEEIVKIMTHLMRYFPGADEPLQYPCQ
T35 sequence (Q8IWQ3 whole entry): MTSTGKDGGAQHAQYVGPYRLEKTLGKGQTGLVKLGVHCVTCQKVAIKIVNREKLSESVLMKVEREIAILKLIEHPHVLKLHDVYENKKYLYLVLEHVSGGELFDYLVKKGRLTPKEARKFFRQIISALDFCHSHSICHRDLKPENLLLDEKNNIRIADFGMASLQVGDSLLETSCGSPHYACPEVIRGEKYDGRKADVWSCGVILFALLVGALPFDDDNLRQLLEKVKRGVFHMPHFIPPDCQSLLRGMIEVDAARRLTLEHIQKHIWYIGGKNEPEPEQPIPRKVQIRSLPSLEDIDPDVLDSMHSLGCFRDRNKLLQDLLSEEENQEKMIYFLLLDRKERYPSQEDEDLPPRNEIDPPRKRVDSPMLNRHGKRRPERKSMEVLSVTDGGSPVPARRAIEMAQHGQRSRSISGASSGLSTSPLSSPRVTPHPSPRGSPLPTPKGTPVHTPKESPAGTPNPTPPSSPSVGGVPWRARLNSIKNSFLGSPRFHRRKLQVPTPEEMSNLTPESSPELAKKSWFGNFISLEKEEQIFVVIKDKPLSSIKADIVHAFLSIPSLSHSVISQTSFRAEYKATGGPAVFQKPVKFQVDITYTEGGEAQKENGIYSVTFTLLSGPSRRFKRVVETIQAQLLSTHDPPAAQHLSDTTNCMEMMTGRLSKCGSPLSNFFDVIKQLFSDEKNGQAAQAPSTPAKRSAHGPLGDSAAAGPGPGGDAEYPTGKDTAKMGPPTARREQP
T38 sequence (P43250 whole entry): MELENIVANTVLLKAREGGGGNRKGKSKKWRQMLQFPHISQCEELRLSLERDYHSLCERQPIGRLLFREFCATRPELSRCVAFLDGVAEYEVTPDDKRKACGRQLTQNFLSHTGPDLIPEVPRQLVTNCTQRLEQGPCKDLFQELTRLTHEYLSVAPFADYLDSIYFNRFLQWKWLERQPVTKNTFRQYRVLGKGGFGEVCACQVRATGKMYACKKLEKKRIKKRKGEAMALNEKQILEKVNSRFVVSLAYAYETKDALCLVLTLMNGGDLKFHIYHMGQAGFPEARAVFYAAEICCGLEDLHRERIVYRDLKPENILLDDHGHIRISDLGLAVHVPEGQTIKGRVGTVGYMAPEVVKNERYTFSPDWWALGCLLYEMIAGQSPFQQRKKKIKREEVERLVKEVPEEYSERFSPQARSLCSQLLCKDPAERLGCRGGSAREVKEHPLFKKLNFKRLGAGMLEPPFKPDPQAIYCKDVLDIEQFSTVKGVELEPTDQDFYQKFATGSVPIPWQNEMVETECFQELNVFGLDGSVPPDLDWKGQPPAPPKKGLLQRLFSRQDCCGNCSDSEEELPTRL
T33 sequence (Q13131 whole entry): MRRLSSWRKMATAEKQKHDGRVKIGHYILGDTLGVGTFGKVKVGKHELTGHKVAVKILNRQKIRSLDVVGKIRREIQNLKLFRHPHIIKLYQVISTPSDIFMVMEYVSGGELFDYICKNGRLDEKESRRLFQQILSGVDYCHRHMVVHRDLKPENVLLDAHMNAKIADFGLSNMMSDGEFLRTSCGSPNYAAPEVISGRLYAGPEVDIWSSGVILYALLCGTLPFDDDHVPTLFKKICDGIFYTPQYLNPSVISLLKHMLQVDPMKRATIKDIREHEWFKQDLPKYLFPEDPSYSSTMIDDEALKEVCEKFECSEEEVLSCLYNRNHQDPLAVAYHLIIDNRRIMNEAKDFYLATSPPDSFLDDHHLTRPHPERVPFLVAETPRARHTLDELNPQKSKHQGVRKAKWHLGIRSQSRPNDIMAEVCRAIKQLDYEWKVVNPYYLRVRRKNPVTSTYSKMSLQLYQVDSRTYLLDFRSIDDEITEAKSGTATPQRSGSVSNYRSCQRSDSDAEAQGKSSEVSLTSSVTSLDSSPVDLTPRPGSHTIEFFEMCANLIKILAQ
T33 sequence (Q9Y478 whole entry partner): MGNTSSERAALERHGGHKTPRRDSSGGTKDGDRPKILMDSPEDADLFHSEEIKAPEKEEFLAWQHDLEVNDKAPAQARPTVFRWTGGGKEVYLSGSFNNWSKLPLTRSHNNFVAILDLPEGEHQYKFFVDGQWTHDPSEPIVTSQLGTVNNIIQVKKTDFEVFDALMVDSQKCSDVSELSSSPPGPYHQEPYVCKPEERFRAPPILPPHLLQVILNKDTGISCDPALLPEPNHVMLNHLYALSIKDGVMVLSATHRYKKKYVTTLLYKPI
T33 sequence (P54619 whole entry partner): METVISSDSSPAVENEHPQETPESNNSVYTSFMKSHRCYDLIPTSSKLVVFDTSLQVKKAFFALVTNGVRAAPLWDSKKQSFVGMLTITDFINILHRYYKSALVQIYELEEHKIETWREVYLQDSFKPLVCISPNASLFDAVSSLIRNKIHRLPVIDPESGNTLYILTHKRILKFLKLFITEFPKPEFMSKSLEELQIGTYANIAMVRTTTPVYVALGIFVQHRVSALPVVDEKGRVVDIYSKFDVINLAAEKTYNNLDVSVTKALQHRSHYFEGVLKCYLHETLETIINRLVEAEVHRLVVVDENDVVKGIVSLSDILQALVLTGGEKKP
T5 sequence (Q8NG66 whole entry): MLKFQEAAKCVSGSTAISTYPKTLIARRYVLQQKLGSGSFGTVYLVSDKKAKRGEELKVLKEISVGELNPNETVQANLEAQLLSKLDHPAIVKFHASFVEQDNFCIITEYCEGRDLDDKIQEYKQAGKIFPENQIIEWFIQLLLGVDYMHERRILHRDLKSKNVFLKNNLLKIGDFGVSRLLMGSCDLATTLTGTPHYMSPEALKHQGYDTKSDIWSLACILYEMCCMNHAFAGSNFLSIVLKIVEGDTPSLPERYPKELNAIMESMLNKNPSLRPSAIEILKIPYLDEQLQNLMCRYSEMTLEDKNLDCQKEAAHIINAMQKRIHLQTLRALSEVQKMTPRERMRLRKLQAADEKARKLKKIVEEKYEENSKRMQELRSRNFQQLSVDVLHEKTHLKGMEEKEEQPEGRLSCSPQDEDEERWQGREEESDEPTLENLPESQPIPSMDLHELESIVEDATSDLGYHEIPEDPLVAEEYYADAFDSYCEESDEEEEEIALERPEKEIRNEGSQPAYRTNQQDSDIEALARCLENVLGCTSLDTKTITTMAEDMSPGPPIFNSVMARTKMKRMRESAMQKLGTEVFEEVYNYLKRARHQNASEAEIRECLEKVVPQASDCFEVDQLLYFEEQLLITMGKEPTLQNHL
T8 sequence (Q9BXA7 whole entry): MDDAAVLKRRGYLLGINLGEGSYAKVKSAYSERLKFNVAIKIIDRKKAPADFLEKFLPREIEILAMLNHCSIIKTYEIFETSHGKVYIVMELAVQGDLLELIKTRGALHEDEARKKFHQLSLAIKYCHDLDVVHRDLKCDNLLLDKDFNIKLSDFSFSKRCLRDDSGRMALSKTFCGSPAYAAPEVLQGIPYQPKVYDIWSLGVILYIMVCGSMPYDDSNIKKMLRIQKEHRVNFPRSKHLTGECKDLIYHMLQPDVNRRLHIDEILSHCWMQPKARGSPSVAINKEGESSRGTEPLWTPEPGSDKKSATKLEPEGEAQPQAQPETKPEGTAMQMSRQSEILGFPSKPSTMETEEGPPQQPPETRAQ
T37 sequence (P16277 whole entry): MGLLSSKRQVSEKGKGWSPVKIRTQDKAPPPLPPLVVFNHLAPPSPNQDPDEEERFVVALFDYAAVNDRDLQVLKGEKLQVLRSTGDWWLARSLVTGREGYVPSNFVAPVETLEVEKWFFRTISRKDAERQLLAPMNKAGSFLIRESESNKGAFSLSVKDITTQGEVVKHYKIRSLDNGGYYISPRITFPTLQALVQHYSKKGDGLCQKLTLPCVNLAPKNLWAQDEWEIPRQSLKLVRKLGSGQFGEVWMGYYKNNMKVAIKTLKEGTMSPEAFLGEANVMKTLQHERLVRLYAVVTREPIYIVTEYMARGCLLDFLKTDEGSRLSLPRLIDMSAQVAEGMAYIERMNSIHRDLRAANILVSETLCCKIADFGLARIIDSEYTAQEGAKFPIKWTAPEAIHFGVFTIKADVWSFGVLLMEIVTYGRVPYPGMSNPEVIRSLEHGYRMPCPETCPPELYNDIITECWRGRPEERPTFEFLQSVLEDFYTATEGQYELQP

Avg POC [1]: 110.5 POC | Avg POC [2]: 120.5 POC | Avg POC [3]: 98 POC | Avg POC [4]: 138.5 POC | Avg POC [5]: 116 POC | Avg POC [6]: 101 POC | Avg POC [7]: 143.5 POC | Avg POC [8]: 104.5 POC | Avg POC [9]: 102 POC | Avg POC [10]: 105.5 POC | Avg POC [11]: 119 POC | Avg POC [12]: 212 POC | Avg POC [13]: 118.5 POC | Avg POC [14]: 117.5 POC | Avg POC [15]: 124.5 POC | Avg POC [16]: 105.5 POC | Avg POC [17]: 105 POC | Avg POC [18]: 121.5 POC | Avg POC [19]: 112.5 POC | Avg POC [20]: 106.5 POC | Avg POC [21]: 101 POC | Avg POC [22]: 119.5 POC | Avg POC [23]: 139.5 POC | Avg POC [24]: 124.5 POC | Avg POC [25]: 103.5 POC | Avg POC [26]: 126.5 POC | Avg POC [27]: 116 POC | Avg POC [28]: 175 POC | Avg POC [29]: 107.5 POC | Avg POC [30]: 112.5 POC | Avg POC [31]: 92 POC | Avg POC [32]: 117.5 POC | Avg POC [33]: 114.5 POC | Avg POC [34]: 134.5 POC | Avg POC [35]: 109.5 POC | Avg POC [36]: 143 POC | Avg POC [37]: 104.5 POC | Avg POC [38]: 106.5 POC | Avg POC [39]: 106 POC | Avg POC [40]: 117 POC | Avg POC [41]: 113.5 POC
Structure (SMILES): COCc1ccc2cccc(NC(=O)Nc3c(C)c(-c4cnn(C)c4)nn3-c3ccccc3)c2c1 [Example 16, 1-(1′,4-dimethyl-1-phenyl-1H,1′H-[3,4′-bipyrazol]-5-yl)-3-(7-(methoxymethyl)naphthalen-1-yl)urea]
